Consider 7 compounds from patent EP0394982A2, “Anthracycline derivatives with cytostatic activity” (BEHRINGWERKE Aktiengesellschaft, priority 1989, dated 1990).

This assay deals with L1210 Leukämiezellen. Nature of the assay: Colony formation of L1210 leukemia cells in soft agar (cytotoxicity in vitro). The format is cell-based, Maus. The settings on record: Mus musculus, colonies > 60 µm counted. From the text: Die zytostatische Wirksamkeit der erfindungsgemäßen Verbindungen wurde anhand von L1210 Leukämiezellen der Maus getestet. Hierzu wurde die Koloniebildung von L1210 Leukämiezellen in Agarplatten herangezogen. Diese Methode dient zum Nachweis des Einflusses der Testsubstanzen auf das Wachstumsverhalten der Zellen über 1 Stunde oder über mehrere Generationen. Bei einer Zellzykluszeit von 10-12 Stunden werden dabei in der Testzeit von 7 Tagen etwa 14 aufeinanderfolgende Generationen beobachtet. Die erfindungsgemäßen zytostatisch wirksamen Substanzen bewirken in diesem Test eine Reduktion der zu beobachtenden Koloniezahl gegenüber einer unbehandelten Kontrollprobe.
Verfahrensweise zur Ermittlung der Koloniebildung von L1210 Leukämiezellen in Soft-Agar
500 Leukämiezellen pro Platte wurden mit unterschiedlichen Konzentrationen der Testsubstanz 1 Stunde bei 37°C inkubiert. Anschließend wurden die Zellen zweimal mit McCoy5A-Medium gewaschen und schließlich in Petrischalen nach Zugabe von 0,3 % Agar ausgegossen. Kontrollen wurden lediglich mit frischem Medium inkubiert. Anstelle der einstündigen Inkubation wurden in manchen Fällen unterschiedliche Konzentrationen und Testsubstanzen der oberen Agarschicht zugemischt, um so eine kontinuierliche Exposition der Zellen über die gesamte Inkubationszeit zu erreichen. Nach Erstarren des Agars wurden die Platten im Brutschrank 7 Tage bei 37°C inkubiert (5 Vol.-% CO₂, 95 % relative Luftfeuchtigkeit). Anschließend wurde die Zahl der entstandenen Kolonien mit einem Durchmesser von mehr als 60 µm gezählt. Die Ergebnisse wurden angegeben als Koloniezahl in behandelten Agarplatten in Prozent der unbehandelten Kontrolle. Aus der so erhaltenen Dosiswirkungskurve wurde die IC₅₀ als Maß für die Wirksamkeit der Substanz ermittelt. Die Ergebnisse für die hier beschriebenen Verbindungen im Vergleich zu Adriamycin sind in Tabelle 1 zusammengefaßt.

[1] abbreviates: L1210, 168 h, continuous exposure (substance mixed into upper agar layer), 7 days at 37°C, read-out: Dauerinkubation IC50.
Where [2] appears, read: L1210, 1 h incubation at 37°C, cells washed, then 7 days in agar, read-out: 1h-Inkubation IC50.

Converted amounts (≈) assume the structure as drawn. Where two headings read alike, the source gives them in different places.

As to `CC[C@@]1(O)C[C@H](O[C@H]2C[C@H](N(C)CC(=O)NN)[C@H](O)[C@H](C)O2)c2c(O)c3c(c(O)c2[C@H]1O)C(=O)c1cccc(O)c1C3=O` [Beispiel 1, 7-0-(3′-N-Hydrazinocarbonylmethyl-3′-N-methyl-α-L-daunosaminyl)-β-rhodomycinon], the IC50 reads like this: under setting [1], 0.32 µg/mL (≈ 0.532 µM); under setting [2], 0.21 µg/mL (≈ 0.349 µM).
Regarding `CC[C@@]1(O)C[C@H](O[C@H]2C[C@H](N(C)CC(=O)NCCN)[C@H](O)[C@H](C)O2)c2c(O)c3c(c(O)c2[C@H]1O)C(=O)c1cccc(O)c1C3=O` [Beispiel 2, 7-0-(3′-N-Ethylendiaminocarbonylmethyl-3′-N-methyl-α-L-daunosaminyl)-β-rhodomycinon], the IC50 is, setting by setting: under setting [1], 0.35 µg/mL (≈ 0.556 µM); under setting [2], 1 µg/mL (≈ 1.59 µM).
As for `CC[C@@]1(O)C[C@H](O[C@H]2C[C@H](N(C)CC(=O)NCCN(C)C)[C@H](O)[C@H](C)O2)c2c(O)c3c(c(O)c2[C@H]1O)C(=O)c1cccc(O)c1C3=O` [Beispiel 3], the IC50 under setting [1] was found to be 0.12 µg/mL (≈ 0.182 µM) and the IC50 under setting [2] came to 0.26 µg/mL (≈ 0.395 µM).
`CC[C@@]1(O)C[C@H](O[C@H]2C[C@H](N(C)CC(=O)NCCCCN)[C@H](O)[C@H](C)O2)c2c(O)c3c(c(O)c2[C@H]1O)C(=O)c1cccc(O)c1C3=O` [Beispiel 4]: the IC50 reads like this: under setting [1], 0.35 µg/mL (≈ 0.532 µM); under setting [2], 1.3 µg/mL (≈ 1.98 µM).
For `CC[C@@]1(O)C[C@H](O[C@H]2C[C@H](N(C)CC(=O)NCCc3c[nH]cn3)[C@H](O)[C@H](C)O2)c2c(O)c3c(c(O)c2[C@H]1O)C(=O)c1cccc(O)c1C3=O` [Beispiel 5, 7-O-(3′-N-Histaminocarbonylmethyl-3′-N-methyl-α-L-daunosaminyl)-β-rhodomycinon] the same measures were 0.31 µg/mL (≈ 0.455 µM) and 1 µg/mL (≈ 1.47 µM).
Take `CC[C@@]1(O)C[C@H](O[C@H]2C[C@H](N(C)CC(=O)NCCc3ccc(O)cc3)[C@H](O)[C@H](C)O2)c2c(O)c3c(c(O)c2[C@H]1O)C(=O)c1cccc(O)c1C3=O` [Beispiel 6, 7-O-(3′-N-Methyl-3′-N-tyraminocarbonylmethyl-α-L-daunosaminyl)-β-rhodomycinon]: the IC50 under setting [1] was 0.41 µg/mL (≈ 0.58 µM) and the IC50 under setting [2] came out at 1.3 µg/mL (≈ 1.84 µM).
Taken in the same sequence, the figures for `CC[C@@]1(O)C[C@H](O[C@H]2C[C@H](N(C)CC(=O)NCCc3c[nH]c4ccccc34)[C@H](O)[C@H](C)O2)c2c(O)c3c(c(O)c2[C@H]1O)C(=O)c1cccc(O)c1C3=O` [Beispiel 7, 7-O-(3′-N-Methyl-3′-N-tryptaminocarbonylmethyl-α-L-daunosaminyl)-β-rhodomycinon] were 0.36 µg/mL (≈ 0.493 µM) and 1.2 µg/mL (≈ 1.64 µM).

Broadly, the IC50 is the point on the concentration scale where inhibition reaches its midpoint.
